According to ChEMBL document CHEMBL1141893, “5-Lipoxygenase inhibition by N-hydroxycarbamates in dual-function compounds” (Bioorg Med Chem Lett, 2005):

Key:
Histamine H1 receptor = Histamine H1 receptor (Homo sapiens, UniProt P35367); assay: Binding affinity for human Histamine H1 receptor in CHO K1 cells; type: cell-based
[1] = target: T1, Polyunsaturated fatty acid 5-lipoxygenase (Homo sapiens, UniProt P09917); assay: Inhibitory concentration against human 5-lipoxygenase
T1 sequence (P09917 whole entry): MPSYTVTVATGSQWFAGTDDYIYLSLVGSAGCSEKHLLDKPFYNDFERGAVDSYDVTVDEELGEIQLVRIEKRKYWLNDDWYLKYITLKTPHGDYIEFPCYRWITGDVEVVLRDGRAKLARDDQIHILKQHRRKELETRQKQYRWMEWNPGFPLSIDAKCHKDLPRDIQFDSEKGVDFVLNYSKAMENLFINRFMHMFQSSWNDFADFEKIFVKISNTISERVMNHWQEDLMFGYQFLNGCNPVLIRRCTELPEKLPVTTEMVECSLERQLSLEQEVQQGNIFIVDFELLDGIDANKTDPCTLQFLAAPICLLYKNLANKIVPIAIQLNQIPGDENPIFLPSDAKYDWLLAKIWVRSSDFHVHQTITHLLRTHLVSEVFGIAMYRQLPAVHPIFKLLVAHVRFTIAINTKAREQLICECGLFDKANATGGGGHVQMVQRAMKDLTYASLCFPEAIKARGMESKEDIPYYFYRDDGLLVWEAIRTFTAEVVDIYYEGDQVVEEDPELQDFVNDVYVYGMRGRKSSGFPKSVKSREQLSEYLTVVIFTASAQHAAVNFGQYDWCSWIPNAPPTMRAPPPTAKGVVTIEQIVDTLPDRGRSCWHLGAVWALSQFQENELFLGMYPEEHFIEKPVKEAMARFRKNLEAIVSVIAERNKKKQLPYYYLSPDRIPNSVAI

[2] = target: T1, Polyunsaturated fatty acid 5-lipoxygenase; assay: Inhibitory concentration against 5-lipoxygenase in human whole blood; type: functional, tissue-based

Histamine H1 receptor, sequence (P35367 whole entry): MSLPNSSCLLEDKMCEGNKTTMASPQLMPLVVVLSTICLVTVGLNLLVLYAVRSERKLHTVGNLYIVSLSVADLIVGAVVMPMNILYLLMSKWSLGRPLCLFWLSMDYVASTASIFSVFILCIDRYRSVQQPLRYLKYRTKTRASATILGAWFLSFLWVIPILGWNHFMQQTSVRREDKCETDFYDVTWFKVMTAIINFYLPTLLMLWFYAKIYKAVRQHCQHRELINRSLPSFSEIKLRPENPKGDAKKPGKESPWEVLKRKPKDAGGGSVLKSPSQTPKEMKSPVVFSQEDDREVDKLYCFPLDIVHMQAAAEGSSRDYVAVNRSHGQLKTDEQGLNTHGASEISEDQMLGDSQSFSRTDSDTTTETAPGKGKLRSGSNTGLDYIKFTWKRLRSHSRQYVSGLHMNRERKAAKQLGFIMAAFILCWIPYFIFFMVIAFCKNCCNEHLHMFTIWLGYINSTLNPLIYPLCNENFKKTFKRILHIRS

SMILES | Ki (Histamine H1 receptor) | IC50 [1] | IC50 [2]
CCOC(=O)N(O)CCC#Cc1ccc(OCCCCN2CCN(C(c3ccc(F)cc3)c3ccc(F)cc3)CC2)cc1 | 5.89 nM | 365 nM | 72 nM
CC(C)OC(=O)N(O)CCC#Cc1ccc(OCCCCN2CCN(C(c3ccc(F)cc3)c3ccc(F)cc3)CC2)cc1 | 9.55 nM | 335 nM | 102 nM
CC(C)COC(=O)N(O)CCC#Cc1ccc(OCCCCN2CCN(C(c3ccc(F)cc3)c3ccc(F)cc3)CC2)cc1 | 7.59 nM | 420 nM | 176 nM
O=C(OCc1ccccc1)N(O)CCC#Cc1ccc(OCCCCN2CCN(C(c3ccc(F)cc3)c3ccc(F)cc3)CC2)cc1 | 17.8 nM | 350 nM | 150 nM
COC(=O)N(O)CCC#Cc1ccc(OCCCCN2CCN(C(c3ccc(F)cc3)c3ccc(F)cc3)CC2)cc1 | 5.01 nM | 170 nM | 90 nM
NC(=O)N(O)CCC#Cc1ccc(OCCCCN2CCN(C(c3ccc(F)cc3)c3ccc(F)cc3)CC2)cc1 |  | 193 nM | 
